Experimental data published in patent US20250109127A1, “METHODS OF USE OF PHENOXYPROPYLAMINE COMPOUNDS TO TREAT DEPRESSION” (Minerva Neurosciences, Inc., priority 2013, published 2025).
Values joined by “and” are separate entries in the source; they are usually repeats but may differ in a detail not shown here. Equal values may be shown once.

Test system: 5-HIAA release in the rat prefrontal cortex
Assay: Microdialysis: 5-HIAA release in prefrontal cortex after I.P. administration
Format: in vivo
Conditions: for 5-HIAA in dialysate, MEAN / 5-HIAA in dialysate, individual animals: Citalopram 10 mg/kg I.P.
Procedure: The aim of the study was to evaluate, using microdialysis, the effects of an intraperitoneal (I.P.) administration in rats of three different doses of SON-117 on dopamine and its metabolites, serotonin and its metabolite (5-HIAA), and norepinephrine levels in prefrontal cortex.
Thirty-two adult male Wistar rats were used for the whole study (4 groups of eight animals planned for the study, Table 1).
Surgery was performed on rats weighing about 300 g at the beginning of the experiments. Rats were anaesthetized with Ketamine (50 mg/kg) & Xylazine (15 mg/kg) by intramuscular administration. The animals were placed in a stereotaxic apparatus in the flat-skull position at a constant setting of −3.3 mm between ear bars and the incisor bar. The animals were treated with a local anesthesic (xylocaine 1%, Astra Zeneca) and an analgesic (Temgesic, from Schering Plough, 0.05 mg/kg, s.c.). A rostrocaudal midline incision was made with a lancet to expose the dorsal skull surface. The “stereotaxic zero” was defined by the Bregma in accordance with Paxinos and Watson's atlas (1986). A hole was drilled in the skull with a drill and the meninges were pierced with a sterile needle to implant a CMA12 guide cannula which later received the dialysis probe.
Coordinates used for implanting guide cannula in prefrontal cortex from Bregma were anteroposterior 3.7 mm, mediolateral 0.8 mm, and dorsoventral −2 mm (top of the probe was at −5 mm). The guide cannula was fixed to the skull with two stainless steel screws (1.88 mm outside diameter) anchored. An application of dental cement was added. A plastic collar allowed each animal to be tethered to a Swivel assembly of the CMA 120 awake animal system. Following surgery, rats were kept in individual cages and allowed to recover for a minimum of 3-5 days before the experimentation. The rats were handled and put in plastic bowl for 10 min at least every day to habituate the animals to their new environment for the dialysis. An I.P. administration with saline was also performed every day.
Dialysis probes (CMA12/3 mm, membrane, 20 kD cut-off, Carnegie Medicine, Stockholm, Sweden), were carefully washed before inserting into the guide cannula. The wash was performed with the artificial cerebrospinal fluid (aCSF) medium (NaCl 147 mM, KCl 2.7 mM, CaCl2 1.2 mM, MgCl2 0.85 mM) at room temperature. The dialysis system was then equilibrated at 20° C. at a perfusion rate of 1 μl/min with a Carnegie pump (CMA100). All catheters (FEP tubing, internal volume of 1.2 μl/10 cm, and tubing adaptors) used for microdialysis were treated in the same conditions.
The probes duly prepared were inserted into the guide cannula and the CMA120 Swivel assembly secured to the animal using a plastic collar. Flow through the dialysis probe with aCSF was maintained at a rate of 1 μl/min during the whole experimentation. The first four fractions (corresponding to 2 hours) were discarded to avoid the effects of parenchymal disturbance and to ensure that an approximate steady-state level was reached. Fractions were then collected over a period of 8.5 h during which time the animals remained quiet. The dialysates were automatically collected with an autosampler (microfraction collector CMA 140, Carnegie Medicin) and stored at −80° C. until analysis. […] Perfusion was then maintained for 7 hours with aCSF. The dialysates (30 μl) were collected into 300 μl vials, transferred into dry ice and then kept frozen (−80° C.) until analysis. Frozen samples were shipped to a partner for analysis. At the end of the microdialysis study, a PBS with colored ink was perfused through the probe in order to visualize the dialyzed area.
Catecholamine assay: Concentrations of dopamine, DOPAC, HVA, 5-HIAA, 5-HT, and norepinephrin were determined for each sample by HPLC coupled with electrochemical detection.

CN(C)CCCC1(c2ccc(F)cc2)OCc2cc(C#N)ccc21 (stereo not drawn) [Citalopram, citalopram, reference compound]
5-HIAA in dialysate, MEAN (T30-T1 h): 112.98 % of respective basal | 5-HIAA in dialysate, individual animals (T30-T1 h): 108.67 % of respective basal and 107.01 % of respective basal and 121.99 % of respective basal and 141.67 % of respective basal and 110.50 % of respective basal and 102.40 % of respective basal and 95.39 % of respective basal and 116.20 % of respective basal | 5-HIAA in dialysate, MEAN (T1 h 30-T2 h): 89.03 % of respective basal | 5-HIAA in dialysate, individual animals (T1 h 30-T2 h): 79.21 % of respective basal and 80.54 % of respective basal and 115.42 % of respective basal and 91.93 % of respective basal and 89.59 % of respective basal and 74.91 % of respective basal and 97.01 % of respective basal and 83.65 % of respective basal | 5-HIAA in dialysate, MEAN (T1 h-T1 h 30): 101.94 % of respective basal | 5-HIAA in dialysate, individual animals (T1 h-T1 h 30): 100.18 % of respective basal and 85.46 % of respective basal and 131.13 % of respective basal and 121.97 % of respective basal and 98.30 % of respective basal and 88.97 % of respective basal and 88.75 % of respective basal and 100.76 % of respective basal | 5-HIAA in dialysate, MEAN (T2 h 30-T3 h): 72.04 % of respective basal | 5-HIAA in dialysate, individual animals (T2 h 30-T3 h): 51.39 % of respective basal and 53.65 % of respective basal and 94.55 % of respective basal and 76.96 % of respective basal and 86.07 % of respective basal and 61.11 % of respective basal and 78.96 % of respective basal and 73.66 % of respective basal | 5-HIAA in dialysate, MEAN (T2 h-T2 h 30): 82.39 % of respective basal | 5-HIAA in dialysate, individual animals (T2 h-T2 h 30): 86.10 % of respective basal and 66.06 % of respective basal and 115.98 % of respective basal and 81.96 % of respective basal and 87.60 % of respective basal and 62.15 % of respective basal and 79.47 % of respective basal and 79.79 % of respective basal | 5-HIAA in dialysate, MEAN (T3 h 30-T4 h): 74.61 % of respective basal | 5-HIAA in dialysate, individual animals (T3 h 30-T4 h): 73.28 % of respective basal and 61.52 % of respective basal and 99.49 % of respective basal and 73.39 % of respective basal and 75.64 % of respective basal and 59.18 % of respective basal and 77.94 % of respective basal and 76.45 % of respective basal | 5-HIAA in dialysate, MEAN (T3 h-T3 h 30): 73.07 % of respective basal | 5-HIAA in dialysate, individual animals (T3 h-T3 h 30): 74.34 % of respective basal and 48.79 % of respective basal and 107.40 % of respective basal and 68.89 % of respective basal and 77.21 % of respective basal and 56.57 % of respective basal and 77.95 % of respective basal and 73.43 % of respective basal | 5-HIAA in dialysate, MEAN (T4 h 30-T5 h): 71.07 % of respective basal | 5-HIAA in dialysate, individual animals (T4 h 30-T5 h): 75.13 % of respective basal and 59.79 % of respective basal and 90.52 % of respective basal and 59.71 % of respective basal and 66.71 % of respective basal and 59.77 % of respective basal and 77.37 % of respective basal and 79.55 % of respective basal | 5-HIAA in dialysate, MEAN (T4 h-T4 h 30): 73.18 % of respective basal | 5-HIAA in dialysate, individual animals (T4 h-T4 h 30): 72.77 % of respective basal and 52.24 % of respective basal and 97.15 % of respective basal and 67.66 % of respective basal and 75.69 % of respective basal and 64.72 % of respective basal and 80.07 % of respective basal and 75.12 % of respective basal | 5-HIAA in dialysate, MEAN (T5 h 30-T6 h): 68.38 % of respective basal | 5-HIAA in dialysate, individual animals (T5 h 30-T6 h): 55.76 % of respective basal and 56.52 % of respective basal and 86.58 % of respective basal and 66.99 % of respective basal and 65.74 % of respective basal and 68.20 % of respective basal and 71.48 % of respective basal and 75.45 % of respective basal | 5-HIAA in dialysate, MEAN (T5 h-T5 h 30): 69.50 % of respective basal | 5-HIAA in dialysate, individual animals (T5 h-T5 h 30): 50.96 % of respective basal and 91.09 % of respective basal and 61.61 % of respective basal and 64.79 % of respective basal and 60.00 % of respective basal and 84.10 % of respective basal and 73.94 % of respective basal | 5-HIAA in dialysate, MEAN (T6 h 30-T7 h): 67.44 % of respective basal | 5-HIAA in dialysate, individual animals (T6 h 30-T7 h): 61.13 % of respective basal and 52.63 % of respective basal and 87.81 % of respective basal and 64.43 % of respective basal and 57.20 % of respective basal | 5-HIAA in dialysate, MEAN (T6 h-T6 h 30): 63.81 % of respective basal | 5-HIAA in dialysate, individual animals (T6 h-T6 h 30): 60.01 % of respective basal and 53.66 % of respective basal and 90.97 % of respective basal and 62.02 % of respective basal and 55.94 % of respective basal and 67.93 % of respective basal and 47.86 % of respective basal and 72.09 % of respective basal | 5-HIAA in dialysate, MEAN (T-30 min-T0 (pre-dose)): 102.91 % of respective basal | 5-HIAA in dialysate, MEAN (T-1 h 30-T-1 h (pre-dose)): 97.47 % of respective basal | 5-HIAA in dialysate, MEAN (T-1 h-T-30 min (pre-dose)): 98.99 % of respective basal | 5-HIAA concentration in prefrontal cortex, significant slight increase (citalopram 10 mg/kg IP, at 0.5 h and 1 h): 113%
